Like-named read-outs stand apart in the source and are kept apart here.
Experiments:
[1] = system: virus-induced cell fusion (gp120-CD4 dependent); assay: Anti-syncytial cocultivation assay: H9 cells chronically infected with HIV-1 RF mixed with uninfected C8166 cells; assay type: cell-based, HIV-1 RF; human H9 and C8166 cells; conditions: for blocking virus-induced cell fusion and death: summary statement
From the text: Syncytial cell formation depends on the interaction of gp120, expressed in the membranes of infected cells, with the CD4 antigen on neighboring cells (Camerini and Seed, 1990). We utilized a cell cocultivation model to examine the effect of the stilbene disulfonic acids on the gp120-CD4 dependent fusion process. This system consists of mixing H9 cells chronically infected with HIV-1 RF (gp120^+ cells) with uninfected C8166 cells (CD4^+ cells) as the fusion indicator. In this assay, cell fusion occurred within 2 to 3 hours of mixing at 37° C. and substantial syncytia were observed after a further 3 to 4 hours (FIG. 1, Panel A). […] These findings with the sulfated polysaccharides were consistent with a previous report (Montefiori et al., 1990).
The effect of the stilbene disulfonic acids and various sulfated polysaccharides on virus-induced cell fusion. In this assay, 10^5 H9 cells, chronically infected with the HIV-1 strain RF, were cocultured with 10^5 uninfected C8166 cells in the absence and presence of the test compounds. FIG. 1A: Positive control, no compound addition; FIG. 1B: 100 μg/ml DIDS; FIG. 1C: 100 μg/ml SITS; FIG. 1D: positive control; FIG. 1E: 10 μg/ml 500,000 MW dextran sulfate; FIG. 1F: 250 μg/ml heparin.
CD4^+ uninfected C8166 cells were seeded into 24-well trays ([…]) that contained growth medium and various concentrations of test compounds. H9 cells, chronically infected with the RF strain of HIV-1, were washed and then added as a source of gp120^+ cells at 10^5 cells/well except for the noncytopathic control: those wells received uninfected H9 cells. The trays were then incubated at 37° C. and the cocultures were observed between 1 and 6 hours p.i. Syncytia were recorded on photographic film.
Protocol: H9 cells chronically infected with RF strain of HIV-1 and uninfected C8166 cells were mixed in the presence of either DIDS, SITS, H2 DIDS, dextran sulfate, or heparin (100 μg/ml). The cells were observed after 2, 31/2 and 51/2 hours and the amount of cell fusion quantified.
Protocol: H9 cells chronically inected with HIV-1 and uninfected C8166 cells were mixed in the presence of either DIDS, SITS, H2 DIDS, dextran sulfate, heparin (at 100 μg/ml), OKT4 or OKT4A (at a 1/50 dilution). The cells were observed after 4 hours and the amount of cell fusion quantitied. OKT4 and OKT4A are monoclonal antibodies that bined the CD4 cell surface antigen.

[2] = system: HIV-1; conditions: cited from earlier work
[3] = system: HCMV; assay: Plaque reduction assay, HCMV; assay type: cell-based
Method: (§1) Protocol: Plaque reduction assay. Treatment after adsorption during incubation.

[4] = system: HSV 2; assay: Plaque reduction assay, HSV 2; assay type: cell-based
Method: as §1

[5] = system: HIV-1 infected JM cells; assay: Treatment of HIV-1 infected JM cells with DIDS, SITS and ddC; assay type: cell-based, HIV-1 (human T cell line JM); conditions: 5 μM
Method: Protocol: JM cells were infected with HIV to give approximately 100 syncytia after 3 days. Virus adsorption was at room temperature for 2 hours. The cells were then washed thoroughly and distributed in wells of a tissue culture plate at a concentration of 1×10^5 cells/well. At 24 hours post infection either DIDS (100 μg/ml), SITS (100 μg/ml), or ddC (5 μM) were added to wells having infected cells. As virus controls, some wells had no drug added. At 42 hours post infection other wells received either ddC (5 μM), SITS (100 μg/ml), or DIDS (100, 50, 25, 12.5, 6.25 μg/ml). Syncytia were scored at 3 and 4 days post-infection and the supernatant fluids were harvested after 3 and 4 days for p24 core antigen determination.

[6] = system: virus-induced cell fusion (gp120-CD4 dependent); assay: Cell fusion after pretreatment of uninfected C8166 cells, washing and mixing with chronically infected H9 cells; assay type: cell-based, HIV-1; human H9 and C8166 cells; conditions: cells pretreated and washed before mixing with H9 cells
Method: In the next experiments, CD4+ C8166 cells were pretreated overnight with either DIDS (100 μg/ml), SITS (100 μg/ml) or drug-free medium. Unabsorbed compounds were removed by repeated washings and chronically infected H9 cells were then added. […] Thus, cell washing prior to mixing with the H9 cells oblated the protective effect observed above (FIG. 1, Panel E) when 500,000 MW dextran sulfate was continually present in the assay.
Pretreatment of CD4+ C8166 cells with DIDS blocks fusion with chronically infected H9 cells. In this experiment, C8166 cells were pretreated overight with various stilbene disulfonic acids or drug-free medium (fusion control). The cells were washed, incubated with chronically infected H9 cells and syncytia were photographed at 6 hours post-mixing. Pretreatment conditions were as follows: […]: 100 μg/ml SITS; FIG. 2B: drug-free medium; and FIG. 2C: 100 μg/ml DIDS.
In pretreatment experiments, CD4^+ C8166 cells were maintained in serum-free medium (RPMI 1640 plus human transferrin 50 μg/ml, bovine insulin 20 μg/ml, bovine serum albumin 2 mg/ml) and were exposed to compound by overnight incubation. Treated cells were washed twice in fresh serum-free medium and then cocultured with chronically infected H9 cells in serum-free medium. Otherwise, cell numbers, assay conditions and scoring of syncytia were as described above.
Protocol: C8166 cells were pretreated for 2.5 hours with either DIDS, SITS or H2 DIDS (at 500 and 250 μg/ml). The cells were then washed three times and mixed with H9 cells chronically infected with HIV-1. Cell fusion was quantified after 4 and 24 hours.

In the case of Dextran Sulfate [reference compound], the “Syncytia after 3 1/2 hrs” value ([1]; 100 μg/ml, virus control +++) is given as 0, the “Syncytia after 5 1/2 hrs” value ([1]; 100 μg/ml, virus control +++) is given as 0 and the “inhibition of HIV-1 replication in vitro” value [2] is given as “highly effective inhibitors”.
`Nc1nc(O)c2ncn(COC(CO)CO)c2n1` [Gancyclovir, reference compound] gave a Plaque counts ([3]; 0.1 μg/ml, first count) of 34, a Plaque counts ([3]; 0.1 μg/ml, second count) of 39 and a Plaque counts ([3]; 1 μg/ml, first count) of 6. It also gave a Plaque counts ([3]; 1 μg/ml, second count) of 13, a Plaque counts ([3]; 1 μg/ml, third count) of 1 and a Plaque counts ([3]; 10 μg/ml, first count) of 3. For the same compound, the Plaque counts ([3]; 10 μg/ml, second count) was 2, the Plaque counts ([3]; 10 μg/ml, third count) was 7 and the Plaque counts ([3]; 1000 μg/ml, first count) was 0. The Plaque counts ([3]; 1000 μg/ml, second count) was 0, the Plaque counts ([3]; 1000 μg/ml, third count) was 0 and the activity at 0.1 µg/mL ([3]; Human betaherpesvirus 5, 0.1 μg/ml, read-out: Mean % VC (plaques)) was over 100%. The activity at 1 µg/mL ([3]; Human betaherpesvirus 5, 1 μg/ml, read-out: Mean % VC (plaques)) was 22%, the activity at 10 µg/mL ([3]; Human betaherpesvirus 5, 10 μg/ml, read-out: Mean % VC (plaques)) was 10% and the activity at 1000 µg/mL ([3]; Human betaherpesvirus 5, 1000 μg/ml, read-out: Mean % VC (plaques)) was 0%.
`Nc1nc2c(ncn2COCCO)c(=O)[nH]1` [Acyclovir, reference compound] showed a Plaque counts ([4]; 0.1 μg/ml, first count) of 44, an activity at 0.1 µg/mL ([4]; 0.1 μg/ml, read-out: Mean % VC (plaques)) of 70% and a Plaque counts ([4]; 0.1 μg/ml, second count) of 34. The Plaque counts ([4]; 1 μg/ml, first count) was 31, the activity at 1 µg/mL ([4]; 1 μg/ml, read-out: Mean % VC (plaques)) was 54% and the Plaque counts ([4]; 1 μg/ml, second count) was 31. It also gave a Plaque counts ([4]; 1 μg/ml, third count) of 29, a Plaque counts ([4]; 10 μg/ml, first count) of 0 and an activity at 10 µg/mL ([4]; 10 μg/ml, read-out: Mean % VC (plaques)) of 0%. The Plaque counts ([4]; 10 μg/ml, second count) was 1, the Plaque counts ([4]; 10 μg/ml, third count) was 0 and the Plaque counts ([4]; 100 μg/ml, first count) was 0. The activity at 100 µg/mL ([4]; 100 μg/ml, read-out: Mean % VC (plaques)) was 0%, the Plaque counts ([4]; 100 μg/ml, second count) was 0 and the Plaque counts ([4]; 100 μg/ml, third count) was 0.
For `Nc1ccn([C@H]2CC[C@@H](CO)O2)c(=O)n1` [ddC, reference compound], the “Mean syncytia/well 3 days p.i.” value ([5]; added 24 hr) was 65, the “Mean syncytia/well 4 days p.i.” value ([5]; added 24 hr) was 51 and the “p24 antigen 3 days p.i.” value ([5]; added 24 hr) was 9000 pg/mL. For the same compound, the “p24 antigen 4 days p.i.” value ([5]; added 24 hr) was 3100 pg/mL, the “Mean syncytia/well 3 days p.i.” value ([5]; added 42 hr) was “As VC” and the “Mean syncytia/well 4 days p.i.” value ([5]; added 42 hr) was “As VC”. For the same compound, the “p24 antigen 3 days p.i.” value ([5]; added 42 hr) was 17000 pg/mL, the “p24 antigen 4 days p.i.” value ([5]; added 42 hr) was 67000 pg/mL and the activity at 5 µM ([5]; Human immunodeficiency virus 1, 72 h, added 24 hr, read-out: p24 antigen 3 days p.i., % control) was 19%. It also gave an activity at 5 µM ([5]; Human immunodeficiency virus 1, 72 h, added 42 hr, read-out: p24 antigen 3 days p.i., % control) of 36%, an activity at 5 µM ([5]; Human immunodeficiency virus 1, 96 h, added 24 hr, read-out: p24 antigen 4 days p.i., % control) of 3.5% and an activity at 5 µM ([5]; Human immunodeficiency virus 1, 96 h, added 42 hr, read-out: p24 antigen 4 days p.i., % control) of 75%.
For pentosan polysulfate, the “inhibition of HIV-1 replication in vitro” value [2] is given as “highly effective inhibitors”.
In the case of Heparin [reference compound], the “cell fusion relative to nontreated virus control” value ([1]; 250 μg/ml, Panel F) is reported as “totally ineffective”, the “blocking virus-induced cell fusion and death” value [1] is reported as “ineffective at blocking virus-induced cell fusion and death” and the “protective effect after pretreatment” value [6] is reported as “no protective effect”. The “inhibition of HIV-1 replication in vitro” value [2] was “highly effective inhibitors”.
For “Dextran sulfate (8,000) [reference compound]”, the “cell fusion / syncytia” value ([1]; 100 μg/ml, at the time of cell mixing) was “totally ineffective” and the “blocking virus-induced cell fusion and death” value [1] was “ineffective at blocking virus-induced cell fusion and death”.
